In patent US20200253979A1, “THERAPEUTIC METHODS RELATING TO HSP90 INHIBITORS” (AI Therapeutics, Inc., priority 2017, published 2020):
pEC50: −log10 of the molar value.

Columns and labels:
[1] = test system: FLT3 mutants in BaF3 cells; experiment: Cell surface FLT3 in transfected BaF3 cells by flow cytometry; assay type: cell-based, murine; details: BaF3, cell surface expression, 24 hours
Method: (§1) We next sought to determine whether MPC-0767 can also promote the degradation of other FLT3 mutants that have been reported to confer resistance to FLT3 inhibitors. To do this, we again utilized the BaF3 murine cell line into which the following FLT3 mutants were transfected: FLT3 wild-type, FLT3-ITD, D835V, FLT3-ITD D835V, D835Y, FLT3-ITD D835Y, D835H, FLT3-ITD D835H, F691L, or FLT3-ITD F691L.
(§2) After puromycin selection, cells were treated with increasing concentrations of MPC-0767 (20-10000 nM) for 24 hours and then stained for cell surface expression of FLT3 (and mutants) and the median signal expression was quantified by flow cytometry.

FLT3 WT in BaF3 cells = experiment: as above; assay type: cell-based, murine; details: BaF3, 20-10000 nM, 24 hours
Method: as §1, §2

[2] = test system: T-cell populations within MC38 tumors; experiment: Effector/regulatory T-cell ratio in MC38 tumors; assay type: in vivo, mouse; details: 150 mg/kg QD×7
Method: To test if MPC-0767 may induce an anti-tumor immune response in addition to direct cytotoxic activity, down regulation of PD-Ll and the effector/regulatory T-cell ratio was measured in the same MC38 syngeneic model. On day 21, when the average tumor volume was 372 mm^3 in size, a second group of mice (n=6) was treated with 150 mg/kg MPC-0767 QD×7. One day post the last dose (day 28 post inoculation) tumors were harvested from the vehicle and 150 mg/kg MPC-0767 QD×7 group. Tumor infiltrating leukocytes (CD45^+, CD3^−) within the dissociated tumors were analyzed for PD-L1 expression by flow cytometry.

FLT3-ITD AML cells = experiment: CellTiter-Glo viability of AML cell lines and primary AML samples; assay type: cell-based; details: FLT3-ITD cells (n=8), 72 hours; read-out: geometric mean EC50 (cell viability)
Method: (§3) Exponentially growing cell lines were counted and seeded into 96-well clear, flat-bottomed polystyrene microtiter plates in a final volume of 90 μL per well. For primary AML samples, cells were seeded into 384 well plates at a density of 2×10^4 cells in a final volume of 27 μL per well. To treat cell lines or primary samples 10 μL or 3 μL, respectively, of 10× concentrations of MPC-0767, were then added to the cells to give a final concentration of 10000 nM, 5000 nM, 2500 nM, 1250 nM, 625 nM, 313 nM, 156 nM, 78 nM, 39 and 20 nM. […] Cells were seeded and treated in duplicate. After incubation for three days, cell viability was determined by measuring intracellular ATP levels using the CellTiter-Glo® assay system by adding to each well either 100 μL for 96 well plates, or 30 μL for 384 well plates. Luminescence was detected using a plate reader.
(§4) The effect of drugs on cell viability was calculated by comparing the ATP levels (luminescence counts per second) of cells exposed to test compound with those of cells exposed to vehicle (DMSO) alone. The half-maximal effective concentration (EC50) for each cell line was determined using the R DRC package (R Core Team, 2017). In brief, the dose-response curves were fitted with a four-parameter logistic regression model (LL.4) according to (Eq-1) and the absolute EC50 was estimated using a confidence interval of 0.95.

FLT3 WT AML cells = experiment: as above; assay type: cell-based; details: FLT3 WT cells (n=11), 72 hours; read-out: geometric mean EC50 (cell viability)
Method: as §3, §4

THP1 (THP-1) cells = experiment: CellTiter-Glo cell viability (single agent and combination); assay type: cell-based; details: THP1, 72 h

C[C@H](N)C(=O)O[C@@H](C)C(=O)N1CCC(CCn2c(Sc3cc4c(cc3Br)OCO4)nc3c(N)ncnc32)CC1 [MPC-0767]
potency against FLT3 mutants compared to FLT3 WT [1]: approximately 5 × | cell surface expression of FLT3 WT (FLT3 WT in BaF3 cells): reduced cell surface expression of FLT3 WT | CD4:TREG ratio [2]: significant increase | CD8:TREG ratio [2]: significant increase | pEC50 (FLT3-ITD AML cells): 6.24 | pEC50 (FLT3 WT AML cells): 5.82 | pEC50 (THP1 (THP-1) cells; Homo sapiens, THP-1): < 5.00 | MPC-0767 Sensitivity (THP1 (THP-1) cells): Resistant (EC50 values above 1 μM considered resistant)
